Source: patent US5883243A, “Non-reducing saccharides, their preparations and uses” (Kabushiki Kaisha Hayashibara Seibutsu Kagaku Kenkyujo, priority 1997, dated 1999)

Assays:
[1] = system: Lactobacillus plantarum IFO 3070; assay: Assimilation test by intestinal microorganism; format: cell-based; conditions: 0.5 w/v % saccharide in PYF broth, 37° C., 96 hours
[2] = system: Clostridium sporogenes JCM 1416; assay: Assimilation test by intestinal microorganism; format: cell-based; conditions: 0.5 w/v % saccharide in PYF broth, 37° C., 96 hours, free of sugar: ±
Method: (§1) To evaluate the growth rate of and to judge the assimilability by the microorganisms, the resultant broth was diluted 5-fold, and the turbidity of the dilution was measured at a wavelength of 750 nm in a 1-cm light-path cell. […] The criteria were in Table 3, and the results were in Tables 4 and 5: […]

[3] = system: Clostridium ramosum JCM 1298; assay: Assimilation test by intestinal microorganism; format: cell-based; conditions: 0.5 w/v % saccharide in PYF broth, 37° C., 96 hours
[4] = system: Streptococcus faecalis IAM 10065; assay: Assimilation test by intestinal microorganism; format: cell-based; conditions: 0.5 w/v % saccharide in PYF broth, 37° C., 96 hours
[5] = system: Bifidobacterium animalis JCM 1190; assay: Assimilation test by intestinal microorganism; format: cell-based; conditions: 0.5 w/v % saccharide in PYF broth, 37° C., 96 hours
[6] = system: Bifidobacterium longum JCM 1217; assay: Assimilation test by intestinal microorganism; format: cell-based; conditions: 0.5 w/v % saccharide in PYF broth, 37° C., 96 hours
[7] = system: Bacteroides vulgatus JCM 5826; assay: Assimilation test by intestinal microorganism; format: cell-based; conditions: 0.5 w/v % saccharide in PYF broth, 37° C., 96 hours
[8] = system: Eubacterium aerofaciens ATCC 25986; assay: Assimilation test by intestinal microorganism; format: cell-based; conditions: 0.5 w/v % saccharide in PYF broth, 37° C., 96 hours
[9] = system: Bifidobacterium infantis JCM 1222; assay: Assimilation test by intestinal microorganism; format: cell-based; conditions: 0.5 w/v % saccharide in PYF broth, 37° C., 96 hours
[10] = system: Lactobacillus fermentum IFO 3959; assay: Assimilation test by intestinal microorganism; format: cell-based; conditions: 0.5 w/v % saccharide in PYF broth, 37° C., 96 hours
[11] = system: Clostridium perfringens JCM 3816; format: cell-based; conditions: 0.5 w/v % saccharide in PYF broth, 37° C., 96 hours
[12] = system: Clostridium butyricum JCM 1391; format: cell-based; conditions: 0.5 w/v % saccharide in PYF broth, 37° C., 96 hours
[13] = system: Bifidobacterium adolescentis JCM 1275; assay: Assimilation test by intestinal microorganism; format: cell-based; conditions: 0.5 w/v % saccharide in PYF broth, 37° C., 96 hours
[14] = system: Bacteroides distasonis JCM 5825; assay: Assimilation test by intestinal microorganism; format: cell-based; conditions: 0.5 w/v % saccharide in PYF broth, 37° C., 96 hours
[15] = system: Escherichia coli IFO 3301; assay: Assimilation test by intestinal microorganism; format: cell-based; conditions: 0.5 w/v % saccharide in PYF broth, 37° C., 96 hours
[16] = system: Bacteroides uniformis JCM 5828; assay: Assimilation test by intestinal microorganism; format: cell-based; conditions: 0.5 w/v % saccharide in PYF broth, 37° C., 96 hours
[17] = system: Bifidobacterium breve JCM 1192; assay: Assimilation test by intestinal microorganism; format: cell-based; conditions: 0.5 w/v % saccharide in PYF broth, 37° C., 96 hours
[18] = system: Bifidobacterium bifidum JCM 1255; assay: Assimilation test by intestinal microorganism; format: cell-based; conditions: 0.5 w/v % saccharide in PYF broth, 37° C., 96 hours
[19] = system: Peptostreptococcus prevotii ATCC 9321; assay: Assimilation test by intestinal microorganism; format: cell-based; conditions: 0.5 w/v % saccharide in PYF broth, 37° C., 96 hours
bifid bacteria [20] = assay: Influence on growth-promoting activity for bifid bacteria in vivo (feces of volunteers); design: species or system human; conditions: after vs before 14-day administration; span over both saccharides
Method: The weight of daily feces before and after the 14-day administration tests, the relative change of feces' weight, the feces' pH, the total number of microorganisms per g of feces, the percentage of the number of bifid bacteria to the total number of microorganisms in feces, and the relative change of the total number of bifid bacteria were measured, followed by calculating the mean value of the five volunteers. Among these measurements, the total number of microorganisms was determined in accordance with the method as reported in "A Color Atlas of Anaerobic Bacteria", pp.53-65 (1984), edited by Tomotari MITSUOKA, published by Kabushiki Kaisha Sobunsha, Tokyo, Japan (1984): The colonies grown in 13 different types of media excluding M10 medium were judged for which genus they belong to and counted for cells. The cell count obtained with a specific medium, which gave the highest number of microorganisms for each genus, was determined to be a real cell count. The total cell count of microorganisms of all the genera was determined to be the total number of microorganisms in each volunteer's feces.

[21] = system: crude glucosyltransferase specimen derived from Streptococcus sobrinus strain (ATCC 27351); assay: Inhibition of insoluble glucan formation by glucosyltransferase from dental caries-inducing microorganism; format: biochemical; conditions: sucrose plus test saccharide (one ml of one w/v % each), pH 6.8, 37° C., 16 hours; for Yield of non-adsorbed glucans: sucrose alone 923; for Yield of adsorbed glucans: sucrose alone 1,160
Method: To a mixture solution consisting of one ml of one w/v % sucrose solution, one ml of one w/v % of a test saccharide solution, and 1.5 ml of 0.1M phosphate buffer (pH 6.8) was added 0.5 ml solution containing a crude glucosyltransferase specimen in a total protein content of 10 mg, and the mixture solution was placed in a small test tube which was then fixed and slanted to give a grade 30 degrees and allowed to react at 37° C. for 16 hours. The reaction mixture was transferred gently to another test tube and mixed with a solution obtained by washing carefully with 4 ml water the remaining substances adhered to the inner walls of the small test tube, and the mixture solution was centrifuged to obtain a precipitate as a non-adsorbed glucan. The amounts of the adsorbed- and non-adsorbed glucans thus obtained were respectively quantified by the anthrone-sulfuric acid method, and the total amount of them was regarded as the amount of the formed insoluble glucans. As a control system, a reaction system using water in place of the test saccharide solution, i.e. a reaction system using sucrose as a saccharide, was provided.

[22] = system: Streptococcus sobrinus ATCC 27351; assay: Acid formation by dental caries-inducing microorganisms; conditions: living wet cells, 0.02M saccharide, Stephen buffer pH 7.0, 37° C.; for pH at each fermentation time (min): 0: 0 min; for pH at each fermentation time (min): 5: 5 min; for pH at each fermentation time (min): 15: 15 min; for pH at each fermentation time (min): 30: 30 min; for pH at each fermentation time (min): 60: 60 min; for pH at each fermentation time (min): 90: 90 min
bifid bacteria [23] = assay: Assimilation test by intestinal microorganism, overall judgement; format: cell-based; conditions: results of Tables 4 and 5
Method: as §1

[24] = Maillard reaction (coloration with glycine); format: physicochemical; conditions: 10 w/v % saccharide, one w/v % glycine, 50 mM phosphate buffer pH 7.0, 100° C., 90 min; 1-cm cell
[25] = system: Enzyme from small intestinal mucus membrane; conditions: enzymes of small intestinal mucus membranes
Acute toxicity test = format: in vivo; conditions: oral, mice, highest possible dose
Source text: As a result, no mouse died even when administered with a highest possible dose. This means that the LD50 is 50 g/kg mouse or more and concludes that it is extremely low in toxicity.

| Compound | Judgement of assimilation (turbidity at a wavelength of 750 nm × 5) [1] | Judgement of assimilation (turbidity at a wavelength of 750 nm × 5) [3] | Judgement of assimilation (turbidity at a wavelength of 750 nm × 5) [4] | Judgement of assimilation (turbidity at a wavelength of 750 nm × 5) [5] | Judgement of assimilation (turbidity at a wavelength of 750 nm × 5) [6] | Judgement of assimilation (turbidity at a wavelength of 750 nm × 5) [7] | Judgement of assimilation (turbidity at a wavelength of 750 nm × 5) [8] | Judgement of assimilation (turbidity at a wavelength of 750 nm × 5) [9] | Judgement of assimilation (turbidity at a wavelength of 750 nm × 5) [10] | Judgement of assimilation (turbidity at a wavelength of 750 nm × 5) [11] | Judgement of assimilation (turbidity at a wavelength of 750 nm × 5) [12] | Judgement of assimilation (turbidity at a wavelength of 750 nm × 5) [13] | Judgement of assimilation (turbidity at a wavelength of 750 nm × 5) [14] | Judgement of assimilation (turbidity at a wavelength of 750 nm × 5) [15] | Judgement of assimilation (turbidity at a wavelength of 750 nm × 5) [16] | Judgement of assimilation (turbidity at a wavelength of 750 nm × 5) [17] | Judgement of assimilation (turbidity at a wavelength of 750 nm × 5) [18] | Judgement of assimilation (turbidity at a wavelength of 750 nm × 5) [19] | Increase of the total cell count of bifid bacteria (bifid bacteria [20]) | Yield of non-adsorbed glucans [21] | other results |
| --- | --- | --- | --- | --- | --- | --- | --- | --- | --- | --- | --- | --- | --- | --- | --- | --- | --- | --- | --- | --- | --- |
| O=C[C@H](O)[C@@H](O)[C@H](O)[C@H](O)CO [A, glucose, reference compound] | ++ (0.2 or higher but less than 0.3) | + (0.15 or higher but less than 0.2) | ++ (0.2 or higher but less than 0.3) | +++ (0.3 or higher) | +++ (0.3 or higher) | + (0.15 or higher but less than 0.2) | +++ (0.3 or higher) | ++ (0.2 or higher but less than 0.3) | ++ (0.2 or higher but less than 0.3) | +++ (0.3 or higher) | +++ (0.3 or higher) | +++ (0.3 or higher) | ++ (0.2 or higher but less than 0.3) | + (0.15 or higher but less than 0.2) | ++ (0.2 or higher but less than 0.3) | ++ (0.2 or higher but less than 0.3) | ++ (0.2 or higher but less than 0.3) | + (0.15 or higher but less than 0.2) |  |  | Judgement of assimilation (turbidity at a wavelength of 750 nm × 5) [2]: + (0.15 or higher but less than 0.2) |
| OC[C@H]1O[C@H](OC[C@H]2O[C@H](O[C@H]3O[C@H](CO)[C@@H](O)[C@H](O)[C@H]3O)[C@H](O)[C@@H](O)[C@@H]2O)[C@H](O)[C@@H](O)[C@@H]1O [O-α-D-glucopyranosyl-(1→6)-α-D-glucopyranosyl α-D-glucopyranoside] | - (Less than 0.1) | - (Less than 0.1) | - (Less than 0.1) | +++ (0.3 or higher) | +++ (0.3 or higher) | - (Less than 0.1) | - (Less than 0.1) | +++ (0.3 or higher) | - (Less than 0.1) | + (0.15 or higher but less than 0.2) |  | +++ (0.3 or higher) | - (Less than 0.1) | - (Less than 0.1) | - (Less than 0.1) | +++ (0.3 or higher) | ++ (0.2 or higher but less than 0.3) | ± (0.1 or higher but less than 0.15) | 2.3- to 2.5 fold | 118 µg/mL | Yield of adsorbed glucans [21]: 30 µg/mL; pH at each fermentation time (min): 0 [22]: 7.0; pH at each fermentation time (min): 5 [22]: 7.0; pH at each fermentation time (min): 15 [22]: 6.9; pH at each fermentation time (min): 30 [22]: 6.9; pH at each fermentation time (min): 60 [22]: 6.9; pH at each fermentation time (min): 90 [22]: 6.9; Selective assimilability by bifid bacteria, in words (bifid bacteria [23]): high in the selective assimilability by bifid bacteria; Coloration degree (at a wavelength of 480 nm) [24]: 0.021; Digestibility, judgement in words [25]: slightly hydrolyzed; Mortality in acute toxicity test, in words (Acute toxicity test): no mouse died |
| OC[C@H]1O[C@H](OC[C@H]2O[C@H](O[C@H]3O[C@H](CO[C@H]4O[C@H](CO)[C@@H](O)[C@H](O)[C@H]4O)[C@@H](O)[C@H](O)[C@H]3O)[C@H](O)[C@@H](O)[C@@H]2O)[C@H](O)[C@@H](O)[C@@H]1O [α-Isomaltosyl α-isomaltoside, O-α-D-glucopyranosyl-(1→6)-α-D-glucopyranosyl O-α-D-glucopyranosyl-(1→6)-α-D-glucopyranoside] | - (Less than 0.1) | - (Less than 0.1) | - (Less than 0.1) | +++ (0.3 or higher) | +++ (0.3 or higher) | - (Less than 0.1) | - (Less than 0.1) | +++ (0.3 or higher) | - (Less than 0.1) | - (Less than 0.1) | +++ (0.3 or higher) | +++ (0.3 or higher) | - (Less than 0.1) | - (Less than 0.1) | - (Less than 0.1) | +++ (0.3 or higher) | ++ (0.2 or higher but less than 0.3) | ± (0.1 or higher but less than 0.15) | 2.3- to 2.5 fold | 298 µg/mL | Yield of adsorbed glucans [21]: 72 µg/mL; pH at each fermentation time (min): 0 [22]: 7.0; pH at each fermentation time (min): 5 [22]: 7.0; pH at each fermentation time (min): 15 [22]: 6.9; pH at each fermentation time (min): 30 [22]: 6.9; pH at each fermentation time (min): 60 [22]: 6.9; pH at each fermentation time (min): 90 [22]: 6.9; Selective assimilability by bifid bacteria, in words (bifid bacteria [23]): high in the selective assimilability by bifid bacteria; Coloration degree (at a wavelength of 480 nm) [24]: 0.016; Digestibility, judgement in words [25]: relatively-low in digestibility |
